{"source": "patent US20090202497A1", "about": "“USE OF GLP-1, GLP-1 DERIVATIVES OR GLP-1 FRAGMENTS FOR SKIN REGENERATION, STIMULATION OF HAIR GROWTH, OR TREATMENT OF DIABETES” (The General Hospital Corporation, priority 2005, published 2009)", "key": {"[1]": {"test_system": "shaved New Zealand white rabbits", "assay": "Hair growth after intradermal peptide injection into the backs of shaved rabbits", "assay_type": "in vivo, rabbit", "settings": "for hair growth at the sites of injection: 100 μg intradermally in Freund's adjuvant, observed approximately 3-4 weeks after last injection", "method": "0.1 mg (100 μg) of the following peptides were injected intradermally into the backs of the shaved New Zealand white rabbits: synthetic mammalian GLP-1 (1-37), synthetic GLP-1 peptide fragment containing amino acid sequence 16-30 of GLP-1 (1-37) (amino acid numbering starts from histidine 1 of mammalian GLP-1 (1-37), synthetic rat GLP-2 peptide fragment containing amino acid sequence 9-24 of rat GLP-2 (amino acid numbering starts at histidine 1 of the rat GLP-2 sequence), rat IP-2 and synthetic mammalian glucagon. Sequences for rat GLP-2, rat IP-2 and mammalian glucagon are well known in the art, and are provided, for example, in U.S. Pat. No. 6,849,708, which is hereby wholly incorporated by reference (see, e.g., FIG. 1 of U.S. Pat. No. 6,849,708). The total amount of peptide was administered in 10-20 intradermal injections as an emulsification in Freund's adjuvant. Each peptide was tested in four rabbits, except for GLP-1 (1-37) that was injected into 5 rabbits. This amount of peptide was administered at 3 time intervals (100 μg at each time interval), one week apart. […] This effect was not observed in any of the rabbits that were immunized with any other of the above described peptides. […] The inventors observed enhanced hair growth upon intradermal injection of only GLP-1 (1-37) into rabbits."}, "[2]": {"test_system": "cultured skin-derived cells", "assay": "cAMP levels in cell extracts after incubation with GLP-1", "assay_type": "cell-based, mouse", "settings": "incubation with GLP-1 for 5-30 min; data not shown", "method": "To determine whether GLP-1 receptors are actively coupled to signal transduction pathways in skin-derived cells, GLP-1 was added to the cells and examined for the activation of cell signaling. Three signaling pathways were investigated: Cyclic AMP, calcium influx, and mitogen activated protein kinase phosphorylation (MAPK).\nSince GLP-1Rs are classically recognized to couple to Gs and adenylyl cyclase to generate cAMP cell extracts were assayed for changes in levels of cAMP after their incubation with GLP-1 for 5-30 min."}, "P42/44 MAPK (ERK1/2)": {"test_system": "P42/44 MAPK (ERK1/2)", "assay": "Western immunoblot of ERK1/2 phosphorylation in primary skin cell cultures", "assay_type": "cell-based, mouse", "settings": "10 nM GLP-1", "method": "Cultures of C57B6/L mouse skin-derived cells were grown in 100 mm dishes to 80% confluence. Cultures were washed once with PBS and incubated with KRB buffer (115 mM NaCl, 5 mM KCl, 10 mM NaHCO3, 2.5 mM MgCl2, 2.5 mM CaCl2, 20 mM HEPES, pH 7.4) containing 0.5% bovine serum albumin (BSA) and 1 mM glucose at 37° C. for 1 hour. Cultures were then incubated with 10 nM GLP1 in the setting of no (0 mM), low (2.8 mM) or high (16.7 mM) glucose. Proteins were extracted with lysis buffer (50 mM Hepes pH 7.6, 160 mM NaCl, 20 mM sodium pyrophosphate, 20 mM glycerophosphate, 10 mM NaF, 2 mM sodium vanadate, […], and protease inhibitor cocktail). Ten (10) μg of protein per lane was electrophoresed in 4-12% Bis-Tris gels (Invitrogen Corp.) and transferred onto nitrocellulose membranes (Nitrobind, Osmotics, Inc., Minnetonka, Minn.) at 4° C. overnight. Membranes were blocked with 3% BSA in PBS with 0.2% Tween-80 for 1 hour at RT, incubated with mouse monoclonal anti-phospho-P42 MAPK antibody (1:2000 dilution) at 4° C. overnight, washed, and incubated with horseradish peroxidase-conjugated secondary antibody at RT for 1 hour. Immunostained proteins were detected using a the ECL chemiluminescence detection kit (Amersham Biosciences, Ltd., Buckinghamshire, England). […]"}, "[3]": {"test_system": "cultured skin-derived cells", "assay": "fura-2 loading and perforated patch clamp monitoring of membrane potential and current", "assay_type": "cell-based, mouse", "settings": "perforated patch clamp; data not shown", "from_the_text": "The cells were next loaded with the Ca2+ indicator fura-2, and changes in membrane potential and current were monitored using the perforated patch clamp technique."}, "[4]": {"test_system": "cultured skin-derived cells", "assay": "cAMP luciferase reporter plasmid transfected into cultured skin-derived cells", "assay_type": "cell-based, mouse", "settings": "data not shown"}, "mouse skin-derived cells": {"test_system": "mouse skin-derived cells", "assay": "Differentiation of cultured skin-derived cells into insulin C-peptide producing cells (immunostaining)", "assay_type": "cell-based", "settings": "differentiation media with GLP-1 (10 nM) for 30 days", "method": "For in-vitro differentiation, after passaging for one month, mouse skin-derived cells were freshly plated and overlaid with differentiation medium composed of RPMI1640 containing 1% HEPES, 1% penicillin/streptomycin/fungizone, 1% pyruvate, 2% B-27 supplement, 2% FBS, […] MIN6 cells, provided by J. Miyazaki, were cultured as described (Miyazaki, J. et al., Endocrinology 127:126-32 (1990)).\nFor immunochemistry, 7 μm frozen sections were prepared from newborn C57BL/6 mouse skin, and skin-derived tissue culture cells were grown on coverslips. Tissues/coverslips were fixed with 4% paraformaldehyde at RT for 15 min. They were then rinsed with PBS containing 0.2% Triton X-100 and blocked with 3% normal donkey serum for 1 hour at RT. Tissues/coverslips were incubated with primary antibody at a 1:500 dilution at RT for 1 hour, rinsed with PBS containing 0.2% Triton X-100, and incubated with secondary (donkey) Cy2- or Cy3-conjugated antisera at RT for 1 hour. They were then washed with PBS and mounted with fluorescent mounting medium. […]\nMouse skin was minced and strained, and the resulting cells were used to establish primary cultures of mouse skin-derived cells. […] Immunoreactivity was detected with a Cy-3-conjugated secondary antibody."}}}
{"substance": "GLP-1 peptide fragment containing amino acid sequence 16-30 of GLP-1 (1-37): synthetic GLP-1 peptide fragment containing amino acid sequence 16-30 of GLP-1 (1-37) (VSSYLEGQAAKEFIA; Glucagon-like peptide 1; UniProt P01275 107-121, looked up, fragment)", "values": [{"measurement": "hair growth at the sites of injection", "setting": "[1]; 3 times one week apart", "result": "not observed"}]}
{"substance": "glucagon [mammalian glucagon, reference compound]", "values": [{"measurement": "hair growth at the sites of injection", "setting": "[1]; 3 times one week apart", "result": "not observed"}]}
{"substance": "rat GLP-2 peptide fragment containing amino acid sequence 9-24 of rat GLP-2: synthetic rat GLP-2 peptide fragment, residues 9-24, numbering from histidine 1 of rat GLP-2 (EMNTILDNLATRDFIN; Glucagon-like peptide 2; UniProt P06883 154-169, looked up, fragment) [reference compound]", "values": [{"measurement": "hair growth at the sites of injection", "setting": "[1]; 3 times one week apart", "result": "not observed"}]}
{"substance": "glucagon-like peptide-1 [GLP-1 (1-37)]", "values": [{"measurement": "changes in levels of cAMP", "setting": "[2]", "result": "No changes in cAMP levels were observed"}, {"measurement": "hair growth at the sites of injection", "setting": "[1]; 3 times one week apart", "result": "luxurious hair growth was observed only at the sites of injection"}, {"measurement": "rabbits showing hair growth at the sites of injection", "setting": "[1]; 100 μg intradermally, 3 times one week apart, approximately 3-4 weeks after last injection", "result": "4 out of 5"}, {"measurement": "hair growth in repeat experiments", "setting": "[1]; repeat experiments at different seasons of the year", "result": "variable results"}, {"measurement": "phosphorylation of ERK1/2 (time course)", "setting": "P42/44 MAPK (ERK1/2); 0, 5, 15 or 30 minutes, 0, 2.8 or 16.7 mM glucose", "result": "prompt phosphorylation of ERK1/2 after 5 minutes followed by defervescence of phosphorylation at 15 and rephosphorylation at 30 min"}, {"measurement": "glucose dependence of ERK1/2 phosphorylation", "setting": "P42/44 MAPK (ERK1/2); no, 2.8 mM or 16.7 mM glucose", "result": "glucose-dependent"}, {"measurement": "membrane current in response to peptide", "setting": "[3]", "result": "No membrane current was detected"}, {"measurement": "activation of cAMP luciferase reporter", "setting": "[4]", "result": "failed to activate"}, {"measurement": "cytoplasmic staining of insulin C-peptide", "setting": "mouse skin-derived cells", "result": "Many of the cells showed cytoplasmic staining of C-peptide"}]}
